Experimental data taken from patent US20210386367A1, “DEVICES AND SYSTEMS FOR GASTROINTESTINAL MICROBIOME DETECTION AND MANIPULATION” (Progenity, Inc., priority 2018, published 2021).
In brackets after ≈: the same amount, converted by molar mass. Entries after “also recorded” stand apart in the source; their conditions may differ. Where two headings read alike, the source gives them in different places.

Legend:
B. fragilis ATCC 25285 = test: Broth microdilution MIC (time-kill study); type: cell-based, Bacteroides fragilis
B. vulgatus ATCC 8482 = test: Broth microdilution MIC (time-kill study); type: cell-based, Bacteroides vulgatus
Proteus mirabilis = test: Broth microdilution MIC, 50 clinical isolates; type: cell-based; conditions: for MIC50 / MIC90: Proteus mirabilis; for MIC50: read-out: MIC50; for MIC90: read-out: MIC90
Method in brief: (§1)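 CLSI broth microdilution in cation-adjusted Mueller Hinton broth, with 3% lysed horse blood added for streptococci. Two-fold dilutions, inoculum ~5×10^5 CFU/mL, 35° C for 16-24 hr in ambient air (streptococci with CO2 planchets). MIC = lowest concentration inhibiting visible growth.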

Pseudomonas aeruginosa = test: Broth microdilution MIC, 50 clinical isolates; type: cell-based; conditions: for MIC50: read-out: MIC50
Method in brief: as §1

Enterobacter aerogenes = test: Broth microdilution MIC, 50 clinical isolates; type: cell-based; conditions: for MIC50 / MIC90: Klebsiella aerogenes; for MIC50: read-out: MIC50; for MIC90: read-out: MIC90
Method in brief: as §1

[1] = test system: three isolates each of E. coli, Streptococcus spp. and Bacteroides spp.; test: Time-kill assay, overall summary; type: cell-based
Protocol: MIC values were determined by broth microdilution in accordance with guidelines from the Clinical and Laboratory Standards Institute (CLSI; (1) “Methods for Dilution Antimicrobial Susceptibility Tests for Bacteria That Grow Aerobically; Approved Standard; 11th ed.,” CLSI standard M07, 2018; (2) “Performance Standards for Antimicrobial Susceptibility Testing; 28th ed.,” CLSI supplement M100, 2018).
During the time-kill study, the test flasks were sampled at 2, 6, and 24 hr for determination of viable counts using the track dilution method as described above. Bacteroides was also sampled at 48 hr. All E. coli plates were incubated for 20-24 hr at 35° C., Streptococci for 20-24 hr at 35° C. in a CO2 incubator, and Bacteroides for approximately 48 hr at 35° C. in the anaerobe chamber. Colonies were counted manually, and the CFU/mL was determined from the average count of the duplicate plates, followed by the calculation of the log10 CFU/mL. The limit of detection for the assay was 50 CFU/mL.

[2] = Bacteroides fragilis, ATCC25285, broth microdilution, read-out: MIC
[3] = Phocaeicola vulgatus, ATCC8482, broth microdilution, read-out: MIC
[4] = Pseudomonas aeruginosa, read-out: MIC90

C[C@@H](O)[C@H]1C(=O)N2C(C(=O)O)=C(S[C@@H]3CN[C@H](C(=O)N(C)C)C3)[C@H](C)[C@H]12 [meropenem]
MIC (B. fragilis ATCC 25285; B. fragilis MMX 123 ATCC 25285): 0.06 µg/mL (≈ 0.156 µM)
MIC (B. fragilis ATCC 25285; [2]): 0.06 µg/mL (≈ 0.156 µM)
MIC (B. vulgatus ATCC 8482; B. vulgatus ATCC 8482): 0.12 µg/mL (≈ 0.313 µM)
MIC (B. vulgatus ATCC 8482; [3]): 0.12 µg/mL (≈ 0.313 µM)
% S (Proteus mirabilis): 98%
MIC range (Proteus mirabilis): ≤0.008 to 2 µg/mL
Mode (Proteus mirabilis): 0.06 µg/mL
Cumulative percentage of isolates inhibited at MIC (Proteus mirabilis; 0.03 μg/mL): 38.0%
Number of test isolates at MIC (Proteus mirabilis; 0.03 μg/mL): 18
Cumulative percentage of isolates inhibited at MIC (Proteus mirabilis; 0.06 μg/mL): 82.0%
Number of test isolates at MIC (Proteus mirabilis; 0.06 μg/mL): 2
Cumulative percentage of isolates inhibited at MIC (Proteus mirabilis; 2 μg/mL): 100.0%
Number of test isolates at MIC (Proteus mirabilis; 2 μg/mL): 1
MIC50 (Proteus mirabilis): 0.06 µg/mL (≈ 0.156 µM)
MIC90 (Proteus mirabilis): 0.12 µg/mL (≈ 0.313 µM)
% I (Proteus mirabilis; listed as MEM): 2% ^
Cumulative percentage of isolates inhibited at MIC (Proteus mirabilis; ≤0.008 μg/mL): 2.0%
Number of test isolates at MIC (Proteus mirabilis; ≤0.008 μg/mL): 1
% I (Pseudomonas aeruginosa): 10%
% R (Pseudomonas aeruginosa): Eighteen
% S (Pseudomonas aeruginosa): 72%
Mode (Pseudomonas aeruginosa): 0.25 µg/mL
relative activity among drugs tested (Pseudomonas aeruginosa): most active drug evaluated; also recorded: most active agent
Cumulative percentage of isolates inhibited at MIC (Pseudomonas aeruginosa; 0.03 μg/mL): 2.0%
Number of test isolates at MIC (Pseudomonas aeruginosa; 0.03 μg/mL): 1
Cumulative percentage of isolates inhibited at MIC (Pseudomonas aeruginosa; 0.06 μg/mL): 6.0%
Number of test isolates at MIC (Pseudomonas aeruginosa; 0.06 μg/mL): 2
Cumulative percentage of isolates inhibited at MIC (Pseudomonas aeruginosa; 0.5 μg/mL): 56.0%
Number of test isolates at MIC (Pseudomonas aeruginosa; 0.5 μg/mL): 5
Cumulative percentage of isolates inhibited at MIC (Pseudomonas aeruginosa; 1 μg/mL): 66.0%
Number of test isolates at MIC (Pseudomonas aeruginosa; 1 μg/mL): 5
Cumulative percentage of isolates inhibited at MIC (Pseudomonas aeruginosa; 2 μg/mL): 72.0%
Number of test isolates at MIC (Pseudomonas aeruginosa; 2 μg/mL): 3
Cumulative percentage of isolates inhibited at MIC (Pseudomonas aeruginosa; 4 μg/mL): 84.0%
Number of test isolates at MIC (Pseudomonas aeruginosa; 4 μg/mL): 6
Cumulative percentage of isolates inhibited at MIC (Pseudomonas aeruginosa; 8 μg/mL): 92.0%
Number of test isolates at MIC (Pseudomonas aeruginosa; 8 μg/mL): 4
Cumulative percentage of isolates inhibited at MIC (Pseudomonas aeruginosa; >8 μg/mL): 100.0%
Number of test isolates at MIC (Pseudomonas aeruginosa; >8 μg/mL): 4
MIC50 (Pseudomonas aeruginosa; Pseudomonas aeruginosa): 0.5 µg/mL (≈ 1.3 µM)
MIC90 (Pseudomonas aeruginosa; [4]): 8 µg/mL (≈ 20.9 µM)
% I (Pseudomonas aeruginosa; listed as MEM): 10%
% R (Pseudomonas aeruginosa; listed as MEM): 18%
% I (Enterobacter aerogenes): 2%
% S (Enterobacter aerogenes): Ninety-eight
MIC range (Enterobacter aerogenes): 0.015 to 2 µg/mL
Mode (Enterobacter aerogenes): 0.03 µg/mL
relative activity among drugs tested (Enterobacter aerogenes): most active drug evaluated; also recorded: most active agent
Cumulative percentage of isolates inhibited at MIC (Enterobacter aerogenes; 0.015 μg/mL): 36.0%
Number of test isolates at MIC (Enterobacter aerogenes; 0.015 μg/mL): 18
Cumulative percentage of isolates inhibited at MIC (Enterobacter aerogenes; 0.03 μg/mL): 80.0%
Number of test isolates at MIC (Enterobacter aerogenes; 0.03 μg/mL): 22
Cumulative percentage of isolates inhibited at MIC (Enterobacter aerogenes; 0.06 μg/mL): 94.0%
Number of test isolates at MIC (Enterobacter aerogenes; 0.06 μg/mL): 7
Cumulative percentage of isolates inhibited at MIC (Enterobacter aerogenes; 1 μg/mL): 98.0%
Number of test isolates at MIC (Enterobacter aerogenes; 1 μg/mL): 1
Cumulative percentage of isolates inhibited at MIC (Enterobacter aerogenes; 2 μg/mL): 100.0%
Number of test isolates at MIC (Enterobacter aerogenes; 2 μg/mL): 1
MIC50 (Enterobacter aerogenes): 0.03 µg/mL (≈ 0.0782 µM)
MIC90 (Enterobacter aerogenes): 0.06 µg/mL (≈ 0.156 µM)
Cumulative percentage of isolates inhibited at MIC (Enterobacter aerogenes; […]): 96.0%
Number of test isolates at MIC (Enterobacter aerogenes; […]): 1
% I (Enterobacter aerogenes; listed as MEM): 2%
% S (Enterobacter aerogenes; listed as MEM): 98%
overall time-kill outcome [1]: bactericidal activity

CO/N=C(\C(=O)N[C@@H]1C(=O)N2C(C(=O)O)=C(CSc3nc(=O)c(=O)[nH]n3C)CS[C@H]12)c1csc(N)n1 [ceftriaxone]
MIC (B. fragilis ATCC 25285; B. fragilis MMX 123 ATCC 25285): 32 µg/mL (≈ 57.7 µM)
MIC (B. fragilis ATCC 25285; [2]): 32 µg/mL (≈ 57.7 µM)
MIC (B. vulgatus ATCC 8482; B. vulgatus ATCC 8482): 2 µg/mL (≈ 3.61 µM)
MIC (B. vulgatus ATCC 8482; [3]): 2 µg/mL (≈ 3.61 µM)
% R (Proteus mirabilis): Six
% S (Proteus mirabilis): 94%
Mode (Proteus mirabilis): 0.004 µg/mL
Cumulative percentage of isolates inhibited at MIC (Proteus mirabilis; 0.004 μg/mL): 62.0%
Number of test isolates at MIC (Proteus mirabilis; 0.004 μg/mL): 21
Cumulative percentage of isolates inhibited at MIC (Proteus mirabilis; 0.008 μg/mL): 84.0%
Number of test isolates at MIC (Proteus mirabilis; 0.008 μg/mL): 11
Cumulative percentage of isolates inhibited at MIC (Proteus mirabilis; 0.015 μg/mL): 86.0%
Number of test isolates at MIC (Proteus mirabilis; 0.015 μg/mL): 1
Cumulative percentage of isolates inhibited at MIC (Proteus mirabilis; 0.03 μg/mL): 88.0%
Number of test isolates at MIC (Proteus mirabilis; 0.03 μg/mL): 1
Cumulative percentage of isolates inhibited at MIC (Proteus mirabilis; 0.06 μg/mL): 92.0%
Number of test isolates at MIC (Proteus mirabilis; 0.06 μg/mL): 2
Cumulative percentage of isolates inhibited at MIC (Proteus mirabilis; 1 μg/mL): 94.0%
Number of test isolates at MIC (Proteus mirabilis; 1 μg/mL): 1
Cumulative percentage of isolates inhibited at MIC (Proteus mirabilis; 4 μg/mL): 96.0%
Number of test isolates at MIC (Proteus mirabilis; 4 μg/mL): 1
Cumulative percentage of isolates inhibited at MIC (Proteus mirabilis; 8 μg/mL): 98.0%
Number of test isolates at MIC (Proteus mirabilis; 8 μg/mL): 1
Cumulative percentage of isolates inhibited at MIC (Proteus mirabilis; >128 μg/mL): 100.0%
Number of test isolates at MIC (Proteus mirabilis; >128 μg/mL): 1
MIC50 (Proteus mirabilis): 0.004 µg/mL (≈ 0.00721 µM)
MIC90 (Proteus mirabilis): 0.06 µg/mL (≈ 0.108 µM)
% R (Proteus mirabilis; listed as CTR): 6%^
Cumulative percentage of isolates inhibited at MIC (Proteus mirabilis; ≤0.002 μg/mL): 20.0%
Number of test isolates at MIC (Proteus mirabilis; ≤0.002 μg/mL): 10
Cumulative percentage of isolates inhibited at MIC (Pseudomonas aeruginosa; 4 μg/mL): 2.0%
Number of test isolates at MIC (Pseudomonas aeruginosa; 4 μg/mL): 1
Cumulative percentage of isolates inhibited at MIC (Pseudomonas aeruginosa; 8 μg/mL): 10.0%
Number of test isolates at MIC (Pseudomonas aeruginosa; 8 μg/mL): 4
Cumulative percentage of isolates inhibited at MIC (Pseudomonas aeruginosa; 16 μg/mL): 16.0%
Number of test isolates at MIC (Pseudomonas aeruginosa; 16 μg/mL): 3
Cumulative percentage of isolates inhibited at MIC (Pseudomonas aeruginosa; 32 μg/mL): 36.0%
Number of test isolates at MIC (Pseudomonas aeruginosa; 32 μg/mL): 10
Cumulative percentage of isolates inhibited at MIC (Pseudomonas aeruginosa; 64 μg/mL): 58.0%
Number of test isolates at MIC (Pseudomonas aeruginosa; 64 μg/mL): 11
Cumulative percentage of isolates inhibited at MIC (Pseudomonas aeruginosa; 128 μg/mL): 72.0%
Number of test isolates at MIC (Pseudomonas aeruginosa; 128 μg/mL): 7
Cumulative percentage of isolates inhibited at MIC (Pseudomonas aeruginosa; >128 μg/mL): 100.0%
Number of test isolates at MIC (Pseudomonas aeruginosa; >128 μg/mL): 14
MIC50 (Pseudomonas aeruginosa; Pseudomonas aeruginosa): 64 µg/mL (≈ 115 µM)
MIC90 (Pseudomonas aeruginosa; [4]): > 128 µg/mL
MIC90 (Pseudomonas aeruginosa; listed as CTR): >128 µg/mL
% R (Enterobacter aerogenes): 26%
% S (Enterobacter aerogenes): 74%
MIC range (Enterobacter aerogenes): 0.03 to 64 µg/mL
Mode (Enterobacter aerogenes): 0.06 µg/mL
Cumulative percentage of isolates inhibited at MIC (Enterobacter aerogenes; 0.03 μg/mL): 6.0%
Number of test isolates at MIC (Enterobacter aerogenes; 0.03 μg/mL): 3
Cumulative percentage of isolates inhibited at MIC (Enterobacter aerogenes; 0.06 μg/mL): 42.0%
Number of test isolates at MIC (Enterobacter aerogenes; 0.06 μg/mL): 18
Cumulative percentage of isolates inhibited at MIC (Enterobacter aerogenes; 1 μg/mL): 74.0%
Number of test isolates at MIC (Enterobacter aerogenes; 1 μg/mL): 2
Cumulative percentage of isolates inhibited at MIC (Enterobacter aerogenes; 8 μg/mL): 78.0%
Number of test isolates at MIC (Enterobacter aerogenes; 8 μg/mL): 2
Cumulative percentage of isolates inhibited at MIC (Enterobacter aerogenes; 16 μg/mL): 86.0%
Number of test isolates at MIC (Enterobacter aerogenes; 16 μg/mL): 4
Cumulative percentage of isolates inhibited at MIC (Enterobacter aerogenes; 32 μg/mL): 94.0%
Number of test isolates at MIC (Enterobacter aerogenes; 32 μg/mL): 4
Cumulative percentage of isolates inhibited at MIC (Enterobacter aerogenes; 64 μg/mL): 100.0%
Number of test isolates at MIC (Enterobacter aerogenes; 64 μg/mL): 3
MIC50 (Enterobacter aerogenes): 0.12 µg/mL (≈ 0.216 µM)
MIC90 (Enterobacter aerogenes): 32 µg/mL (≈ 57.7 µM)
% R (Enterobacter aerogenes; listed as CTR): 26%
overall time-kill outcome [1]: bactericidal activity
